Measured values taken from the NIST ThermoML archive (doi:10.1021/je101256z).
“And” between values parts separate entries of the source, which are not always exact repeats. Identical values can stand only once. ± gives the expanded uncertainty stated by the source.

Conditions: Liquid, Vibrating wire viscometry

CC(C)CCCCCCCOC(=O)c1ccccc1C(=O)OCCCCCCCC(C)C
Conditions | viscosity
274.07 K, 100 kPa | 606.7 ± 27 mPa·s
274.35 K, 100 kPa | 588.6 ± 26 mPa·s
282.95 K, 100 kPa | 270.2 ± 9.1 mPa·s
283.03 K, 100 kPa | 265.9 ± 8.9 mPa·s
298.15 K, 200 kPa | 87.63 ± 2 mPa·s [middle of 8 runs]
298.15 K, 10000 kPa | 112.08 ± 2.7 mPa·s and 112.26 ± 2.7 mPa·s
298.15 K, 20000 kPa | 143.67 ± 3.8 mPa·s and 143.41 ± 3.8 mPa·s and 143.42 ± 3.8 mPa·s
298.15 K, 40000 kPa | 231.39 ± 7.2 mPa·s [middle of 6 runs]
298.25 K, 100 kPa | 87.67 ± 2.1 mPa·s
305.15 K, 200 kPa | 57.12 ± 1.2 mPa·s [middle of 5 runs]
305.26 K, 100 kPa | 57.43 ± 1.2 mPa·s
313.15 K, 200 kPa | 37.1 ± 0.76 mPa·s [middle of 5 runs]
313.15 K, 10100 kPa | 46.34 ± 0.96 mPa·s and 46.33 ± 0.96 mPa·s and 46.23 ± 0.96 mPa·s
313.15 K, 20000 kPa | 57.28 ± 1.2 mPa·s and 57.35 ± 1.2 mPa·s and 57.32 ± 1.2 mPa·s
313.15 K, 40000 kPa | 87.15 ± 1.9 mPa·s and 87.13 ± 1.9 mPa·s and 87.03 ± 1.9 mPa·s
313.15 K, 59900 kPa | 130.49 ± 3.3 mPa·s and 130.29 ± 3.3 mPa·s
313.15 K, 60000 kPa | 130.33 ± 3.8 mPa·s
313.15 K, 80000 kPa | 194.08 ± 5.6 mPa·s and 194.41 ± 5.7 mPa·s and 195.2 ± 5.7 mPa·s
313.27 K, 100 kPa | 37.41 ± 0.78 mPa·s
327.83 K, 100 kPa | 19.32 ± 0.4 mPa·s
343.15 K, 200 kPa | 10.99 ± 0.23 mPa·s [middle of 5 runs]
343.15 K, 10100 kPa | 13.33 ± 0.29 mPa·s and 13.35 ± 0.29 mPa·s
343.15 K, 20100 kPa | 15.85 ± 0.33 mPa·s and 15.86 ± 0.33 mPa·s
343.15 K, 40000 kPa | 22.04 ± 0.47 mPa·s and 22.05 ± 0.47 mPa·s
343.15 K, 80100 kPa | 41.22 ± 0.89 mPa·s and 41.24 ± 0.89 mPa·s
343.15 K, 137100 kPa | 95.56 ± 2.2 mPa·s and 95.61 ± 2.2 mPa·s
343.24 K, 100 kPa | 11.1 ± 0.23 mPa·s
343.33 K, 100 kPa | 11.09 ± 0.23 mPa·s
343.53 K, 100 kPa | 11.15 ± 0.23 mPa·s
368.15 K, 300 kPa | 5.65 ± 0.12 mPa·s
368.21 K, 100 kPa | 5.627 ± 0.12 mPa·s
368.54 K, 100 kPa | 5.577 ± 0.12 mPa·s
373.15 K, 300 kPa | 5.04 ± 0.1 mPa·s and 5.05 ± 0.1 mPa·s and 4.92 ± 0.1 mPa·s
373.15 K, 20100 kPa | 6.876 ± 0.14 mPa·s and 6.866 ± 0.14 mPa·s
373.15 K, 40000 kPa | 9.055 ± 0.19 mPa·s and 9.075 ± 0.19 mPa·s and 9.085 ± 0.19 mPa·s
373.15 K, 80100 kPa | 15.22 ± 0.32 mPa·s and 15.23 ± 0.32 mPa·s
373.15 K, 137200 kPa | 30.11 ± 0.65 mPa·s and 30.12 ± 0.65 mPa·s and 30.15 ± 0.65 mPa·s

Cc1cccc2ccccc12 [1-methylnaphthalene]
298.15 K
Conditions | viscosity
200 kPa | 2.9 ± 0.07 mPa·s and 2.89 ± 0.07 mPa·s
1000 kPa | 2.94 ± 0.07 mPa·s and 2.93 ± 0.07 mPa·s and 2.92 ± 0.07 mPa·s
10000 kPa | 3.24 ± 0.07 mPa·s
39900 kPa | 4.4 ± 0.1 mPa·s and 4.41 ± 0.1 mPa·s
40000 kPa | 4.42 ± 0.1 mPa·s
79900 kPa | 6.65 ± 0.15 mPa·s and 6.67 ± 0.15 mPa·s
80000 kPa | 6.68 ± 0.15 mPa·s and 6.65 ± 0.15 mPa·s
120100 kPa | 10.17 ± 0.24 mPa·s and 10.12 ± 0.23 mPa·s
